From ChEMBL document CHEMBL1150917, “Chemical constituents from Cassytha filiformis II” (1998)
The source made the active and inactive calls. No cut-off for these calls is given here.

Experiments:
[1] = system: Platelet; test: Inhibition of arachidonic acid-induced platelet aggregation in rabbit platelet at 100 uM relative to control; assay type: functional, Oryctolagus cuniculus; set-up: scale not given: the % may be the effect or the level left
[2] = system: Platelet; test: Inhibition of ADP-induced platelet aggregation in rabbit platelet at 50 uM relative to control; assay type: functional, cell-based; conditions: Oryctolagus cuniculus
[3] = system: Platelet; test: Inhibition of PAF-induced platelet aggregation in rabbit platelet at 50 uM relative to control; assay type: functional, cell-based; conditions: Oryctolagus cuniculus
[4] = system: Platelet; test: Inhibition of PAF-induced platelet aggregation in rabbit platelet at 100 uM relative to control; assay type: functional, Oryctolagus cuniculus; set-up: scale not given: the % may be the effect or the level left
[5] = system: Platelet; test: Inhibition of collagen-induced platelet aggregation in rabbit platelet at 100 uM relative to control; assay type: functional, Oryctolagus cuniculus; set-up: scale not given: the % may be the effect or the level left
[6] = system: Platelet; test: Inhibition of ADP-induced platelet aggregation in rabbit platelet at 100 uM relative to control; assay type: functional, Oryctolagus cuniculus; set-up: scale not given: the % may be the effect or the level left
[7] = system: Platelet; test: Inhibition of collagen-induced platelet aggregation in rabbit platelet at 50 uM relative to control; assay type: functional, cell-based; conditions: Oryctolagus cuniculus
[8] = system: Platelet; test: Inhibition of arachidonic acid-induced platelet aggregation in rabbit platelet at 50 uM relative to control; assay type: functional, cell-based; conditions: Oryctolagus cuniculus
[9] = system: Platelet; test: Inhibition of ADP-induced platelet aggregation in rabbit platelet at 25 uM relative to control; assay type: functional, Oryctolagus cuniculus; set-up: scale not given: the % may be the effect or the level left
[10] = system: Platelet; test: Inhibition of arachidonic acid-induced platelet aggregation in rabbit platelet at 25 uM relative to control; assay type: functional, Oryctolagus cuniculus; set-up: scale not given: the % may be the effect or the level left
[11] = system: Platelet; test: Inhibition of collagen-induced platelet aggregation in rabbit platelet at 25 uM relative to control; assay type: functional, Oryctolagus cuniculus; set-up: scale not given: the % may be the effect or the level left
[12] = system: Platelet; test: Inhibition of PAF-induced platelet aggregation in rabbit platelet at 25 uM relative to control; assay type: functional, Oryctolagus cuniculus; set-up: scale not given: the % may be the effect or the level left
[13] = system: Platelet; test: Inhibition of arachidonic acid-induced platelet aggregation in rabbit platelet at 20 uM relative to control; assay type: functional, cell-based; conditions: Oryctolagus cuniculus

| Compound | Activity [1] | Activity [2] | Activity [3] | Activity [4] | Activity [5] | Activity [6] | Activity [7] | Activity [8] | Activity [9] | Activity [10] | Activity [11] | Activity [12] | Activity [13] |
| --- | --- | --- | --- | --- | --- | --- | --- | --- | --- | --- | --- | --- | --- |
| COc1cc2c(cc1O)C[C@@H]1NCCc3cc4c(c-2c31)OCO4 [ACTINODAPHNINE] | 0% | Active | Active | 0% | 0% | 0% | Active | Active | – | – | – | – | – |
| CC(=O)Oc1ccccc1C(=O)O [ASPIRIN] | – | – | – | – | – | – | – | – | 77.9% | 0% | 87.8% | 90.5% | – |
| COc1cc2c(cc1O)C[C@H]1c3c(cc4c(c3-2)OCO4)CCN1C [CASSYTHICINE] | 0% | – | – | 68.1% | 0% | 0% | – | – | – | – | – | – | Active |
| COC(=O)N1CCc2cc3c(c4c2[C@@H]1Cc1cc(O)c(OC)cc1-4)OCO3 [CATHAFILINE] | 0% | Active | Active | – | – | – | Active | Active | – | – | – | – | – |
| COC(=O)N1CCc2c(OC)c3c(c4c2[C@@H]1Cc1cc(O)c(OC)cc1-4)OCO3 [CATHAFORMINE] | 0% | Active | Active | 61.5% | 7.6% | – | Active | Active | – | – | – | – | – |
| COc1cc2c(cc1OC)-c1c3c(c(OC)c4c1[C@H](C2)N(C)CC4)OCO3 [OCOTEINE] | 0% | – | – | 87.7% | 0% | – | – | – | – | – | – | – | – |
| COc1cc2c(cc1OC)-c1c(OC)c(O)cc3c1[C@H](C2)N(C)CC3 [PREDICENTRINE] | 0% | – | – | 74% | 0% | – | – | – | – | – | – | – | – |
